Assays:
Italian ryegrass [1] = test: Test Example 5: herbicidal effect by foliage application, plastic box (Table 20, symbol K); format: in vivo, Italian ryegrass (Lolium multiflorum); conditions: foliage application, three weeks after application
Outline: (§1)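 Sow seeds spot-wise in sterilized diluvial soil; cover with ~1.5 cm soil. Grow 14 days in greenhouse, 25° C. to 30° C. Spray foliage with emulsion diluted to predetermined amount. Rate effect after 3 weeks.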

velvetleaf [2] = test: Test Example 4: herbicidal effect by soil treatment (Table 19, symbol M); format: in vivo, velvetleaf (Abutilon theophrasti)
Outline: (§2)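 Soil-surface application: an emulsion agent diluted with water to the predetermined dose is sprayed uniformly over seeds lying under roughly 1.5 cm of sterilized diluvial soil. Boxes stay in a greenhouse at 25° C. to 30° C. Three weeks later, each species is graded on previously defined criteria.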

oval-leafed pondweed = test: Test Example 1: herbicidal activity, application before weed generation under submerged conditions (Table 16, symbol C); format: in vivo, oval-leafed pondweed (Monochoria vaginalis)
Outline: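 Alluvial soil was flooded to 4 cm depth, weed seeds were sown mixed and 2.5-leaf rice seedlings were transplanted. On sowing day, the compound's emulsion, diluted in water to a set dose, was applied to the water surface. Plants grew at 25–30 °C and were scored 0–5 after three weeks.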

lambsquarters = test: Test Example 4: herbicidal effect by soil treatment (Table 19, symbol O); format: in vivo, lambsquarters (Chenopodium album)
Outline: as §2

barnyard grass = test: Test Example 5: herbicidal effect by foliage application, plastic box (Table 20, symbol H); format: in vivo, barnyard grass (Echinochloa crus-galli); conditions: foliage application, three weeks after application
Outline: as §1

Italian ryegrass [3] = test: Test Example 4: herbicidal effect by soil treatment (Table 19, symbol K); format: in vivo, Italian ryegrass (Lolium multiflorum)
Outline: as §2

velvetleaf [4] = test: Test Example 5: herbicidal effect by foliage application, plastic box (Table 20, symbol M); format: in vivo, velvetleaf (Abutilon theophrasti); conditions: foliage application, three weeks after application
Outline: as §1

Japanese bulrush = test: Test Example 2: herbicidal activity, application during weed generation under submerged conditions (Table 17, symbol B); format: in vivo, Japanese bulrush (Schoenoplectus juncoides); conditions: application during weed generation, submerged conditions
Outline: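 3-wk visual-criteria score after one water-surface dose. Emulsion formulation, water-diluted to set rate; applied at 1–2 leaf stage; alluvial soil, 4 cm standing water; seeds co-sown; greenhouse 25–30° C.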

persian speedwell = test: Test Example 4: herbicidal effect by soil treatment (Table 19, symbol R); format: in vivo, Persian speedwell (Veronica persica)
Outline: as §2

Chinese sprangletop = test: Test Example 3: herbicidal effect by foliage application, Wagner pot (Table 18, symbol D); format: in vivo, chinese sprangletop (Leptochloa chinensis)
Outline: (§3)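 Plants were sown in alluvial soil held under 0.1–0.5 cm standing water and grown 14 days in a greenhouse at 25–30 °C. An emulsifiable formulation, water-diluted to the set dose, was then sprayed onto the foliage, and effects were scored three weeks later using previously defined criteria.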

redroot pigweed = test: Test Example 4: herbicidal effect by soil treatment (Table 19, symbol N); format: in vivo, redroot pigweed (Amaranthus retroflexus)
Outline: as §2

green foxtail = test: Test Example 4: herbicidal effect by soil treatment (Table 19, symbol G); format: in vivo, green foxtail (Setaria viridis)
Outline: as §2

windgrass = test: Test Example 4: herbicidal effect by soil treatment (Table 19, symbol L); format: in vivo, windgrass (Apera spica-venti)
Outline: as §2

blackgrass = test: Test Example 5: herbicidal effect by foliage application, plastic box (Table 20, symbol J); format: in vivo, blackgrass (Alopecurus myosuroides); conditions: foliage application, three weeks after application
Outline: as §1

wild oat = test: Test Example 4: herbicidal effect by soil treatment (Table 19, symbol I); format: in vivo, wild oat (Avena fatua)
Outline: as §2

chickweed = test: Test Example 5: herbicidal effect by foliage application, plastic box (Table 20, symbol P); format: in vivo, common chickweed (Stellaria media); conditions: foliage application, three weeks after application
Outline: as §1

rice flat sedge = test: Test Example 3: herbicidal effect by foliage application, Wagner pot (Table 18, symbol E); format: in vivo, rice flat sedge (Cyperus iria)
Outline: as §3

[5] = amount of applied herbicide 320 g/ha
[6] = amount of applied herbicide 323 g/ha

## CCOc1ccc2c(-c3c(O)c(C)nn(C)c3=O)c(-c3ccccc3OCC)sc2c1 [3-093]
Italian ryegrass [1]; 320 g/ha
  K: Italian ryegrass, herbicidal effect grade: 5 (Herbicidal rate of 90% or more (almost completely withered))
Velvetleaf [2]; [5]
  M: velvetleaf, herbicidal effect grade: 3 (Herbicidal rate of 40% or more and less than 70%)
oval-leafed pondweed; [5]
  Herbicidal effect, C: oval-leafed pondweed: 5 (Herbicidal rate of 90% or more (almost completely withered))
lambsquarters; [5]
  O: lambsquarters, herbicidal effect grade: 4 (Herbicidal rate of 70% or more and less than 90%)
Barnyard grass; 320 g/ha
  H: barnyard grass, herbicidal effect grade: 5 (Herbicidal rate of 90% or more (almost completely withered))
Italian ryegrass [3]; [5]
  K: Italian ryegrass, herbicidal effect grade: 4 (Herbicidal rate of 70% or more and less than 90%)
Velvetleaf [4]; 320 g/ha
  M: velvetleaf, herbicidal effect grade: 5 (Herbicidal rate of 90% or more (almost completely withered))
Japanese bulrush; AAH 320 g/ha
  herbicidal effect rating, B: Japanese bulrush: 5 (Herbicidal rate of 90% or more (almost completely withered))
Persian speedwell; [5]
  R: persian speedwell, herbicidal effect grade: 5 (Herbicidal rate of 90% or more (almost completely withered))
Chinese sprangletop; 320 g/ha
  herbicidal effect on Chinese sprangletop (D): 5 (Herbicidal rate of 90% or more (almost completely withered))
Redroot pigweed; [5]
  N: redroot pigweed, herbicidal effect grade: 5 (Herbicidal rate of 90% or more (almost completely withered))
Green foxtail; [5]
  G: green foxtail, herbicidal effect grade: 5 (Herbicidal rate of 90% or more (almost completely withered))
windgrass; [5]
  L: windgrass, herbicidal effect grade: 4 (Herbicidal rate of 70% or more and less than 90%)
blackgrass; 320 g/ha
  J: blackgrass, herbicidal effect grade: 4 (Herbicidal rate of 70% or more and less than 90%)
Wild oat; [5]
  I: wild oat, herbicidal effect grade: 3 (Herbicidal rate of 40% or more and less than 70%)
chickweed; 320 g/ha
  P: chickweed, herbicidal effect grade: 5 (Herbicidal rate of 90% or more (almost completely withered))
Rice flat sedge; 320 g/ha
  herbicidal effect on rice flat sedge (E): 5 (Herbicidal rate of 90% or more (almost completely withered))

## CCCC(=O)Oc1c(C)nn(C)c(=O)c1-c1c(-c2ccccc2OCC)sc2cc(OCC)ccc12 [3-094]
Italian ryegrass [1]; 323 g/ha
  K: Italian ryegrass, herbicidal effect grade: 3 (Herbicidal rate of 40% or more and less than 70%)
Velvetleaf [2]; [6]
  M: velvetleaf, herbicidal effect grade: 0 (Herbicidal rate of 5% or less (almost no effect))
oval-leafed pondweed; [6]
  Herbicidal effect, C: oval-leafed pondweed: 5 (Herbicidal rate of 90% or more (almost completely withered))
lambsquarters; [6]
  O: lambsquarters, herbicidal effect grade: 4 (Herbicidal rate of 70% or more and less than 90%)
Barnyard grass; 323 g/ha
  H: barnyard grass, herbicidal effect grade: 5 (Herbicidal rate of 90% or more (almost completely withered))
Italian ryegrass [3]; [6]
  K: Italian ryegrass, herbicidal effect grade: 4 (Herbicidal rate of 70% or more and less than 90%)
Velvetleaf [4]; 323 g/ha
  M: velvetleaf, herbicidal effect grade: 5 (Herbicidal rate of 90% or more (almost completely withered))
Japanese bulrush; AAH 323 g/ha
  herbicidal effect rating, B: Japanese bulrush: 4 (Herbicidal rate of 70% or more and less than 90%)
Persian speedwell; [6]
  R: persian speedwell, herbicidal effect grade: 5 (Herbicidal rate of 90% or more (almost completely withered))
Chinese sprangletop; 323 g/ha
  herbicidal effect on Chinese sprangletop (D): 5 (Herbicidal rate of 90% or more (almost completely withered))
Redroot pigweed; [6]
  N: redroot pigweed, herbicidal effect grade: 5 (Herbicidal rate of 90% or more (almost completely withered))
Green foxtail; [6]
  G: green foxtail, herbicidal effect grade: 3 (Herbicidal rate of 40% or more and less than 70%)
windgrass; [6]
  L: windgrass, herbicidal effect grade: 4 (Herbicidal rate of 70% or more and less than 90%)
blackgrass; 323 g/ha
  J: blackgrass, herbicidal effect grade: 4 (Herbicidal rate of 70% or more and less than 90%)
Wild oat; [6]
  I: wild oat, herbicidal effect grade: 0 (Herbicidal rate of 5% or less (almost no effect))
chickweed; 323 g/ha
  P: chickweed, herbicidal effect grade: 5 (Herbicidal rate of 90% or more (almost completely withered))
Rice flat sedge; 323 g/ha
  herbicidal effect on rice flat sedge (E): 5 (Herbicidal rate of 90% or more (almost completely withered))
